Key:
Steroidogenic factor 1 [1] = target: T1, Steroidogenic factor 1 (Homo sapiens, UniProt Q13285)
Description: Displacement of 6N-FAM from SF1 LBD (218 to 461 residues) (unknown origin) expressed in Escherichia coli BL21 pLysS by competitive binding based fluorescence polarization assay

Steroidogenic factor 1 [2] = target: T1, Steroidogenic factor 1; experiment: Binding affinity to human SF1 LBD (218 to 461 residues) expressed in Escherichia coli BL21 by electrophoretic mobility shift assay
Steroidogenic factor 1 [3] = target: T1, Steroidogenic factor 1; experiment: Binding affinity to SF1 LBD (218 to 461 residues) (unknown origin) expressed in Escherichia coli BL21 pLysS measured after overnight incubation by fluorescence polarization assay
[4] = target: Nuclear receptor subfamily 5 group A member 2 (Homo sapiens) (UniProt O00482); experiment: Binding affinity to human LRH1 LBD expressed in Escherichia coli BL21 by electrophoretic mobility shift assay
Steroidogenic factor 1 [5] = target: T1, Steroidogenic factor 1; experiment: Inhibition of Gal4-fused human SF1 LBD (198 to 462 residues) expressed in CHO-K1 cells; type: cell-based

T1 sequence (Q13285 whole entry, the tested form may be a part): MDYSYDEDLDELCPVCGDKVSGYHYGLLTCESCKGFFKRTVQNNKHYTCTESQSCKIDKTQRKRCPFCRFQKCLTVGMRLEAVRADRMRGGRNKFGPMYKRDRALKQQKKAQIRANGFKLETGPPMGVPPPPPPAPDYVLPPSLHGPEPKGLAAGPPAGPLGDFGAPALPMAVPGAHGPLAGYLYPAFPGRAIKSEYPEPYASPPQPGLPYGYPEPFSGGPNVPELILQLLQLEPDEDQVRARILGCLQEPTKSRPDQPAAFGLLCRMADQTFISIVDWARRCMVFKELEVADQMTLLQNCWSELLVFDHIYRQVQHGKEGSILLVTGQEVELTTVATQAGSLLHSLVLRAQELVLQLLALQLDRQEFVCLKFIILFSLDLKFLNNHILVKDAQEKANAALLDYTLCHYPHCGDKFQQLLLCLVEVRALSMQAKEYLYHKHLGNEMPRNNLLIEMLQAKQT
Nuclear receptor subfamily 5 group A member 2 (Homo sapiens), sequence (O00482 whole entry, the tested form may be a part): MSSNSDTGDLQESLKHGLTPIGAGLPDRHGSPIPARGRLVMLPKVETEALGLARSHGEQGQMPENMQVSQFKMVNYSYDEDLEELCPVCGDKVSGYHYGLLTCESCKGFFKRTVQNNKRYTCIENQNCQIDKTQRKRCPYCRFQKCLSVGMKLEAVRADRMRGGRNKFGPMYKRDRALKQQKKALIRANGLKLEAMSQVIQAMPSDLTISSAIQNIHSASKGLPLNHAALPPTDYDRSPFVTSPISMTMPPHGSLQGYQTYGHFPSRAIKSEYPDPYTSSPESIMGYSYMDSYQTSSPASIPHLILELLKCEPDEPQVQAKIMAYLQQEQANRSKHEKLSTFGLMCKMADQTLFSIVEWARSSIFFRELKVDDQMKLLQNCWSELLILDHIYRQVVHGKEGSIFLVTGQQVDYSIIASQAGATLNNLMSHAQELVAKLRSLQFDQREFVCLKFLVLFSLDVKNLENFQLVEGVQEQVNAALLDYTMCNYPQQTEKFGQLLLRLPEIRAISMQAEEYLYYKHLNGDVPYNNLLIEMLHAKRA

Row | SMILES | Ki (Steroidogenic factor 1 [1]) | further results
1 | CCCCNC(=O)c1cc(C(C)(C)C)cc(C(C)(C)C)c1O | 34700 nM | 
2 | C=C(c1ccccc1)[C@@]12CC[C@H](NS(N)(=O)=O)C1CC(CCCCCC)=C2c1ccccc1 (some centres undefined) | 1400 nM | 
3 | CCCCC/C=C\C/C=C\C/C=C\C/C=C\CCCC(=O)OC(COC(=O)CCCCCCCCCCCCCCCCC)COP(=O)(O)O[C@@H]1[C@H](O)[C@H](O)[C@@H](OP(=O)(O)O)[C@H](OP(=O)(O)O)[C@H]1O (some centres undefined) | 418 nM | Activity (Steroidogenic factor 1 [2]): 250 nM
4 | C=C(c1ccccc1)[C@@]12CC[C@H](NS(N)(=O)=O)[C@@H]1CC(CCCCCCCCCC(=O)Nc1ccc3c(c1)C(=O)OC31c3ccc(O)cc3Oc3cc(O)ccc31)=C2c1ccccc1 |  | Kd (Steroidogenic factor 1 [3]): 12.3 nM
5 | C=C(c1ccccc1)[C@@]12CC[C@H](N)[C@@H]1CC(CCCCCCCCCC(=O)OC)=C2c1ccccc1 | 7800 nM | 
6 | CCCCCCCCCCCC(=O)OC[C@H](COP(=O)([O-])OCC[N+](C)(C)C)OC(=O)CCCCCCCCCCC | 850 nM | 
7 | CCCC(=O)OC[C@H](COP(=O)(O)O[C@H]1[C@H](O)[C@@H](OP(=O)(O)O)[C@H](OP(=O)(O)O)[C@@H](OP(=O)(O)O)[C@H]1O)OC(=O)CCC |  | Activity [4]: 120 nM
8 | CCOC(=O)C(C)Oc1cccc2c(=O)n(CC(=O)Nc3ccc4c(c3)OCCO4)ccc12 (centres undefined) |  | IC50 (Steroidogenic factor 1 [5]): 30 nM

— ChEMBL document CHEMBL4342491, “Development of a Versatile and Sensitive Direct Ligand Binding Assay for Human NR5A Nuclear Receptors” (ACS Med Chem Lett, 2020)
